Assays:
[1] = test system: NCI-H-522 cells; test: Cell cytotoxicity assay, NCI-H-522 cells; type: cell-based; conditions: Homo sapiens, NCI-H522, 72 hours, percent cytotoxicity against DMSO control
Description: (§1) The following human derived non-small cell lung cancer cell lines were used to test the efficiency of the compounds to cause cell death and assess the anti-cancer properties of said compounds: 1. A549 cells: adenocarcinomic human alveolar basal epithelial cells; these cells are used as models for the study of lung cancer and the development of drug therapies against it • 2. NCI-H-460 cells are also human lung cancer cells, and • 3. NCI-H-522 cells are also human lung cancer cells.
(§2) 500 cells/well/30 μL were seeded in a 384 well cell culture plate. Incubated over night at 37° C., 5% CO2 in cell culture incubator. 10 μL of 4× compound was added to the plates, and incubated for 72 hours at 37° C., 5% CO2 in cell culture incubator. Assay DMSO control were included for 0% cytotoxicity control. Assay was terminated by addition of 10 μL of the reagent CTG 2.0 detection reagent #G9242. Plates were incubated for 20 minute incubation at room temperature with shaking Plate were read in Envision. Ultrasensitive luminescence and data was analyzed and percent cytotoxicity of compounds was determined against DMSO control.
(§3) All the compounds, A1-A116, were tested for cell toxicity using said non-small cell lung cancer cell lines using the above described method.

[2] = test system: Non-small cell lung cancer cell lines; test: Cell toxicity assay, overall statement; type: cell-based; conditions: summary in words of Table 6
Description: as §1, §2, §3
These selected derivatives of Formula A were further tested to confirm their efficiency as anti-cancer compounds.

[3] = test system: A549 cells; test: Cell cytotoxicity assay, A549 cells; type: cell-based; conditions: Homo sapiens, 72 hours, percent cytotoxicity against DMSO control
Description: as §1, §2, §3

[4] = test system: NCI-H-460 cells; test: Cell cytotoxicity assay, NCI-H-460 cells; type: cell-based; conditions: Homo sapiens, NCI-H460, 72 hours, percent cytotoxicity against DMSO control
Description: as §1, §2, §3

[5] = test system: NCI-H-460; test: CellTiter Glo assay, NCI-H-460; type: cell-based; conditions: Homo sapiens, NCI-H460; 72 hours, 10 point DRC, 100 μM top; read-out: Cytotoxicity IC50 NCI-H-460
Description: as §1
(§4) Cells were cultured and maintained in F12K+10% FBS+1× anti-anti media and RPMI+10% FBS+1× anti-anti media. Cells were trypsinised and expanded to ensure that cells are not over-confluent and are in log growth phase. On day 0, 500 cells/well were seeded in 30 μl media using cell culture treated white flat bottom 384 well plate, centrifuged at 40×g for 10 seconds and incubated overnight in […], 5% CO2 incubator. On day 1, 4× concentration of compounds were prepared in complete media, 10 μl was added to cells, centrifuged at 40×g for 10 seconds and incubated 72 hours in 37° C., 5% CO2 incubator. Compounds tested: 100 μM top, 3 fold dilution and 10 point DRC in triplicate. Final DMSO concentration was maintained at 0.5% for all compound. No compound/DMSO was used as a control. On day 4 (72 hours post treatment) plates were brought to room temperature for 10 min 10 μl of CellTiter Glo reagent was added to each well and placed the plates on an orbital shaker for 10 minutes at room temperature. Luminescence signal was read on the Envision plate reader using the ultra-sensitive luminescence protocol. Data was plotted and analyzed using the below formula: DMSO control treated cells RLU considered as 100% cell viability.
(§5) Table 7 provides the IC50 values for cell toxicity of most efficient derivatives of Formula A.

[6] = test system: A549; test: CellTiter Glo assay, A549; type: cell-based; conditions: Homo sapiens, 72 hours, 10 point DRC, 100 μM top, read-out: Cytotoxicity IC50 A549
Description: as §1, §4, §5

[7] = test system: NCI-H-522; test: CellTiter Glo assay, NCI-H-522; type: cell-based; conditions: Homo sapiens, NCI-H522; 72 hours, 10 point DRC, 100 μM top; read-out: Cytotoxicity IC50 NCI-H-522
Description: as §1, §4, §5

[8] = test system: Non-small cell lung cancer cell lines; test: Cell Titer Glo assay, overall statement; type: cell-based, human; conditions: summary in words
Description: as §1, §4, §5

SMILES: COc1cc(Nc2nc(N3CCN(c4ccnc5cc(F)ccc45)CC3)cc(C(F)(F)F)n2)cc(OC)c1 [Compound A49, N-(3,5-dimethoxyphenyl)-4-(4-(7-fluoroquinolin-4-yl)piperazin-1-yl)-6-(trifluoromethyl)pyrimidin-2-amine]
- cytotoxicity at 1 µM ([1]; 1 μM compound, read-out: Cell toxicity NCI-H-522 cells 1 μM): 45%
- cytotoxicity at 10 µM ([1]; 10 μM compound, read-out: Cell toxicity NCI-H-522 cells 10 μM): 77%
- activity against Non-small cell lung cancer (cell toxicity) [2]: active
- cytotoxicity at 1 µM ([3]; 1 μM compound, read-out: Cell toxicity A549 cells 1 μM): 64%
- cytotoxicity at 10 µM ([3]; 10 μM compound, read-out: Cell toxicity A549 cells 10 μM): 99%
- cytotoxicity at 1 µM ([4]; 1 μM compound, read-out: Cell toxicity NCI-H-460 cells 1 μM): 3%
- cytotoxicity at 10 µM ([4]; 10 μM compound, read-out: Cell toxicity NCI-H-460 cells 10 μM): 59%
- IC50 [5]: 842 nM
- IC50 [6]: 576 nM
- IC50 [7]: 1840 nM
- efficiency in cell toxicity against Non-small cell lung cancer cell lines [8]: best efficiency

Source: patent US20260070886A1, “QUINOLINE PIPERAZINE DERIVATIVES, PHARMACEUTICAL COMPOSITION AND USES THEREOF” (priority 2022, published 2026)
